Measurements published in patent US20180263925A1, “METHODS FOR THE TREATMENT OF ALOPECIA AREATA UTILIZING GENE MODULATION APPROACHES” (RXi Pharmaceuticals Corporation, priority 2014, published 2018).
Like-named read-outs stand apart in the source and are kept apart here.

Experiments:
[1] = Solubility of DPCP in solvents for gels and ointments; type: physicochemical
Method: (§1) The compatibility and solubility of DPCP was determined in both isopropyl myristate (IPM) as well as Polysorbate 80 (PS80). […] Next, the stability of DPCP in these solvents was determined. A solution of 0.4% DPCP in isopropyl myristate and a solution of 0.4% DPCP in Polysorbate 80 was placed at 50° C. for two weeks. The stability of DPCP in these solvents was determined using reverse phase HPLC on a C18 column.

[2] = Stability of DPCP in solvents at 50° C., reverse phase HPLC on a C18 column; type: physicochemical
Method: as §1
For the development of a gel formulation, the stability of DPCP was determined in both Ethanol (ETOH) and Isopropanol (IPA) (0.4% DPCP solutions in each solvent was placed at 50° C. for two weeks; FIG. 2. All solutions contained 0.1% BHT). […] However, DPCP was stable in IPA. The stability of DPCP in the above solvents was determined using reverse phase HPLC on a C18 column.

alopecia areata = conditions: cited from earlier work
CTGF mRNA = conditions: rat skin, cited from earlier work; for reduction of CTGF mRNA: Days 1 and 3, biopsy Day 8, vs dose matched non-targeting control

Row | solubility of DPCP ([1]; in Polysorbate 80 (PS80)) | solubility of DPCP ([1]; in isopropyl myristate (IPM)) [% w/w] | stability of DPCP ([2]; 0.4% DPCP in Ethanol, 0.1% BHT, in the presence of citric acid, 50° C., two weeks) | stability of DPCP ([2]; 0.4% DPCP in Isopropanol (IPA), 0.1% BHT, 50° C., two weeks) | stability of DPCP ([2]; 0.4% DPCP in Polysorbate 80, 50° C., two weeks) | stability of DPCP ([2]; 0.4% DPCP in isopropyl myristate, 50° C., two weeks) | stability of DPCP ([2]; in PS80 with butylated hydroxytoloune (BHT)) | Compound | initial hair regrowth visible after (alopecia areata; alopecia areata patients, 2% sensitizing dose followed by 0.001% challenge doses) | response rates (alopecia areata; in over 25 different studies for treating AA with haptens) | reduction of CTGF mRNA (CTGF mRNA; 300 μg per intradermal injection) [%] | reduction of CTGF mRNA (CTGF mRNA; 600 μg per intradermal injection) [%] | duration of silencing of CTGF vs. non-targeting control (CTGF mRNA; following two intradermal injections)
1 | highly soluble | ~1.1 | Some degradation | stable | some degradation | stable | reduce the amount of degradation | O=c1c(-c2ccccc2)c1-c1ccccc1 [DPCP, Diphenylcyclopropenone] | 8-12 weeks | 29-78% | – | – | –
2 | – | – | – | – | – | – | – | RXI-109: CTGF-targeting sd-rxRNA consisting of sense strand SEQ ID NO:27 (TEG-Chl) and antisense strand SEQ ID NO:28 (sense GCACCUUUCUAGA; antisense UCUAGAAAGGUGCAAACAU; TEG-cholesterol on sense strand; (2)..(2) Modified with 2′Ome; (4)..(10) Modified with 2′Ome; (11)..(13) Phosphorothioate internucleotide bond; (12)..(13) Modified with 2′Ome; (13)..(13) Modified with TEG-Chl; (1)..(1) Modified with P; (1)..(1) Modified with 2′Ome; (2)..(3) Modified with 2′fluoro; (6)..(6) Modified with 2′Ome; (8)..(8) Modified with 2′Ome; (11)..(11) Modified with 2′fluoro; (13)..(13) Modified with 2′Ome; (13)..(19) Phosphorothioate internucleotide bond; (17)..(17) Modified with 2′Ome) | – | – | 51 | 67 | sustained for at least five days
